From patent US4990520A, “2-,4- or 5-substituted thiazole derivatives” (American Cyanamid Company, priority 1990, dated 1991)
Structures can show the parent of a compound that is named as a salt.

Experiments:
[1] = molecular target: high affinity agonist conformation of the muscarinic cholinergic receptor; assay: [3H]-Cis-methyldioxolane (3H-CD) Binding Assay (High Affinity); details: rat cerebral cortex, 1.0 nM 3H-CD, 25° C., 120 minutes, pH 7.4
[2] = molecular target: muscarinic cholinergic receptor; assay: [3H] Quinuclinyl Benzilate (3H-QNB) Binding Assay; design: species or system rat; details: pH 7.4
postsynaptic cholinergic = details: cited from earlier work
presynaptic cholinergic = details: cited from earlier work
SDAT patients = details: versus anticholinesterase inhibitor physostigmine; cited from earlier work
[3] = rat cerebral cortex, 0.25 nM 3H-QNB, 25° C., 120 minutes
[4] = rat cerebral cortex, 0.25 nM 3H-QNB, 25° C., 120 minutes, hydrochloride

Molecule | IC50 [1] | IC50 [2, 3] | also measured
C[N+](C)(C)CC#Cc1nccs1 [N,N,N-Trimethyl-3-(2-thiazolyl)-2-propyn-1-aminium iodide] | 0.673 µM | – | IC50 [2]: 123 µM
CC(=O)N(C)C(C)C#CCN1CCCC1 (stereo not shown) [BM-5, N-methyl-N-(1-methyl-4-pyrrolidino-2-butynyl) acetamide] | – | – | postsynaptic cholinergic activity (postsynaptic cholinergic): postsynaptic partial cholinergic agonist; presynaptic cholinergic activity (presynaptic cholinergic): presynaptic cholinergic antagonist
CN(C)CC#Cc1cncs1 [N,N-Dimethyl-3-(5-thiazolyl)-2-propyn-1-amine] | 3.38 µM | 765 µM | –
C(#Cc1nccs1)CN1CCCC1 [2-[3-(1-Pyrrolidinyl)-1-propynyl]thiazole] | 1.43 µM | 44 µM | –
C[N+](C)(C)CC#Cc1cncs1 [N,N,N-Trimethyl-3-(5-thiazolyl)-2-propyn-1-aminium iodide] | 0.273 µM | 131 µM | –
C(#Cc1cncs1)CN1CCCC1 [5-[3-(1-Pyrrolidinyl)-1-propynyl] thiazole] [5-[3-(1-Pyrrolidinyl)-1-propynyl]thiazole] | 4.7 µM | 115 µM | –
Br/C(=C/c1nccs1)CN1CCCC1 [2-[2-Bromo-3-(1-pyrrolidinyl)-1-propenyl]thiazole,(E)] | – | 90 µM | –
CN(C)CC#Cc1nccs1 [N,N-Dimethyl-3-(2-thiazolyl)-2-propyn-1-amine] | 9.98 µM | 1310 µM | –
CN(C)CC#Cc1cscn1 [--N, --N-Dimethyl-3-(4-thiazoyl)-2-propyn-1-amine] [N,N-Dimethyl-3-(4-thiazoyl)-2-propyn-1-amine] | 19 µM | 381 µM | –
1-[3-(5-Thiazolyl)-2-propenyl]piperidine | 12.6 µM | 164 µM | –
C(#Cc1cscn1)CN1CCCCC1 [1-[3-(4-Thiazolyl)-2-propynyl]piperidine] | 28.1 µM | 124 µM | –
CN(C)CC#Cc1cncs1 [N,N-Dimethyl-3-(5-thiazolyl)-2-propyn-1-amine, hydrochloride] | – | – | IC50 [2, 4]: 482 µM
CN(C)C/C(Cl)=C\c1nccs1 [2-Chloro-N,N-dimethyl-3-(2-thiazolyl)-2-propen-1-amine,(E)] | 1.07 µM | 222 µM | –
Cl/C(=C/c1nccs1)CN1CCCC1 [2-[2-Chloro-3-(1-pyrrolidinyl)-1-propenyl]thiazole,(E)] | 2.23 µM | 186 µM | –
C(#Cc1cscn1)CN1CCCCC1 [1-[3-(4-Thiazolyl)-2-propynyl]piperidine, hydrochloride] | – | – | IC50 ([1]; hydrochloride): 14 µM; IC50 [2, 4]: 114 µM
CN(C)CC#Cc1cscn1 [--N, --N-Dimethyl-3-(4-thiazolyl)-2-propyn-1-amine] [N,N-Dimethyl-3-(4-thiazolyl)-2-propyn-1-amine] | 12.9 µM | 504 µM | –
C(#Cc1cncs1)CN1CCCCC1 [1-[3-(5-Thiazolyl)-2-propynyl]piperidine, hydrochloride] | 0.658 µM | 119 µM | –
C(#Cc1cscn1)CN1CCCC1 [4-[3-(1-Pyrrolidinyl)-1-propynyl]thiazole] | 3.95 µM | 71 µM | –
COC(=O)C1=CCCN(C)C1 [arecoline] | – | – | improvement when compared to physostigmine (SDAT patients): more-consistent improvement
Cl/C(=C/c1nccs1)CN1CCCCC1 [1-[2-Chloro-3-(2-thiazolyl)-2-propenyl]piperidine,(E)] | 6.59 µM | 117 µM | –
C[N+](C)(C)CC#Cc1cscn1 [N,N,N-Trimethyl-3-(4-thiazolyl)-2-propyn-1-aminium, iodide] | 1.46 µM | – | IC50 [2]: 119 µM
C(#Cc1nccs1)CN1CCCCC1 [1-[3-(2-Thiazolyl)-2-propynyl]piperidine] | 10.2 µM | 182 µM | –
C(#Cc1cncs1)CN1CCCC1 [5-[3-(1-Pyrrolidinyl)-1-propynyl]thiazole] | 0.245 µM | 73 µM | –
